ChEMBL document CHEMBL2406977, “The discovery of PLK4 inhibitors: (E)-3-((1H-Indazol-6-yl)methylene)indolin-2-ones as novel antiproliferative agents” (J Med Chem, 2013)

Experiments:
[1] = biological target: T1, Cytochrome P450 1A2 (Homo sapiens, UniProt P05177); test: Inhibition of CYP1A2 (unknown origin) using CEC as substrate after 15 mins by fluorescence assay; assay type: ADME
T1 sequence (P05177 whole entry): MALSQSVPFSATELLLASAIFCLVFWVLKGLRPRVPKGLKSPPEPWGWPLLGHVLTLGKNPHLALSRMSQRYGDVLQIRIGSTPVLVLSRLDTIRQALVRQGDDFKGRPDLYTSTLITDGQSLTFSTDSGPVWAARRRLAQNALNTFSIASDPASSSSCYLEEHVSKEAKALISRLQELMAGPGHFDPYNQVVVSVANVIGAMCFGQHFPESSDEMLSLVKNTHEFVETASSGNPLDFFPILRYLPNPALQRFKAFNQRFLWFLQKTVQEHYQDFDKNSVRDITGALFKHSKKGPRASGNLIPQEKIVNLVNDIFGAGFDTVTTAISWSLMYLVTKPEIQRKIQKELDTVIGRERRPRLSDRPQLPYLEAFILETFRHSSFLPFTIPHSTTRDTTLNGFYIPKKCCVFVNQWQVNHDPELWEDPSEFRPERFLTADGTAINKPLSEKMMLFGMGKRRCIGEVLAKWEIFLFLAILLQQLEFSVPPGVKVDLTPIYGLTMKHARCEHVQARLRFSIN

[2] = biological target: Cytochrome P450 2C19 (Homo sapiens, UniProt P33261); test: Inhibition of CYP2C19 (unknown origin) using MFC as substrate after 30 mins by fluorescence assay; assay type: ADME
Sequence of Cytochrome P450 2C19 (P33261 whole entry): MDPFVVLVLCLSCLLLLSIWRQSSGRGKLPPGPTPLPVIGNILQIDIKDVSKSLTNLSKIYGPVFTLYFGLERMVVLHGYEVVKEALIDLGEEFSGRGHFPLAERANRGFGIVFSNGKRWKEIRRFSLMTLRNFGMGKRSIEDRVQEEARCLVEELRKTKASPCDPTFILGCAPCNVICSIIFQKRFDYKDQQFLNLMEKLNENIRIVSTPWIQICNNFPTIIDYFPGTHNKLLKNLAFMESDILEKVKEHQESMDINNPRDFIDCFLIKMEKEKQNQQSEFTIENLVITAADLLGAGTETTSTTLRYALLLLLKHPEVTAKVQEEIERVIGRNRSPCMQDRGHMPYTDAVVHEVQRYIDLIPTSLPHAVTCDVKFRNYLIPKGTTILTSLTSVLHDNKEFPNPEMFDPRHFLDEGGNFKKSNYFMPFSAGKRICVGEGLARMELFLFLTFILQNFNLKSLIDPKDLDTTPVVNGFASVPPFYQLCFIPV

[3] = biological target: Vascular endothelial growth factor receptor 2 (Homo sapiens, UniProt P35968); test: Inhibition of KDR (unknown origin) by FRET-based homogeneous assay
Sequence of Vascular endothelial growth factor receptor 2 (P35968 whole entry): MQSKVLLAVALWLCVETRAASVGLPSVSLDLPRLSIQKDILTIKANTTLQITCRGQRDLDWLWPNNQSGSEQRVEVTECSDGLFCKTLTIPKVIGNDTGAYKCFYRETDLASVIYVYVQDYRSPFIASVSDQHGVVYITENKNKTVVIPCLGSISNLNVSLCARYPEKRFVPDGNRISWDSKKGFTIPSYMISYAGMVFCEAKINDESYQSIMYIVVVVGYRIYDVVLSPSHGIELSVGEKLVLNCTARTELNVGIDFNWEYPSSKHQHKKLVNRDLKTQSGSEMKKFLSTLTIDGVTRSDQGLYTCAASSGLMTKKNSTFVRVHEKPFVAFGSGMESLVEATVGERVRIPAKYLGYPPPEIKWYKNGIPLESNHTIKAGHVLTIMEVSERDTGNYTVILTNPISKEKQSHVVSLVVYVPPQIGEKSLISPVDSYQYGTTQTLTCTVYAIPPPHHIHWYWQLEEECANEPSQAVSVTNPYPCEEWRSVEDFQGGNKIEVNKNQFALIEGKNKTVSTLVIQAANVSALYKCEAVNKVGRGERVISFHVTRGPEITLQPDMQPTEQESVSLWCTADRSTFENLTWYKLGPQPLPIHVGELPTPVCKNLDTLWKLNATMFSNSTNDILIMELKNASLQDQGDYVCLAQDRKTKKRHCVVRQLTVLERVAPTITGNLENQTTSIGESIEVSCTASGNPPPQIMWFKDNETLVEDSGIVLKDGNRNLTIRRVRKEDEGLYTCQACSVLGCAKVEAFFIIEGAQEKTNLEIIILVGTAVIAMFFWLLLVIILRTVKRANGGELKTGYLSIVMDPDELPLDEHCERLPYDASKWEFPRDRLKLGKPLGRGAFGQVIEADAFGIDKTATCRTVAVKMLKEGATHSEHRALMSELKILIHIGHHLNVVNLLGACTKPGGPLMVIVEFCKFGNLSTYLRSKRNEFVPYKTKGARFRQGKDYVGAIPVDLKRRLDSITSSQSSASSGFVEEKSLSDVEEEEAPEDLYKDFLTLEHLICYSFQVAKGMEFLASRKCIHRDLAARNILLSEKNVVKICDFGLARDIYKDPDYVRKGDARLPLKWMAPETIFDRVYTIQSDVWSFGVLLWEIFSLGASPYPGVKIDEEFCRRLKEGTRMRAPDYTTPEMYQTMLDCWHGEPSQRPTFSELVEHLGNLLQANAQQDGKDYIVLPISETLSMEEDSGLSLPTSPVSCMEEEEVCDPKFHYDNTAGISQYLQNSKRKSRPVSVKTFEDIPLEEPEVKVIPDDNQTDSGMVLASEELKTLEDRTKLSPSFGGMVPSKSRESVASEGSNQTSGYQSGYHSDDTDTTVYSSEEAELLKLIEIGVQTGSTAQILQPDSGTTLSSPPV

[4] = biological target: Cytochrome P450 3A4 (Homo sapiens, UniProt P08684); test: Inhibition of CYP3A4 (unknown origin) after 10 mins by fluorescence assay; assay type: ADME
Sequence of Cytochrome P450 3A4 (P08684 whole entry): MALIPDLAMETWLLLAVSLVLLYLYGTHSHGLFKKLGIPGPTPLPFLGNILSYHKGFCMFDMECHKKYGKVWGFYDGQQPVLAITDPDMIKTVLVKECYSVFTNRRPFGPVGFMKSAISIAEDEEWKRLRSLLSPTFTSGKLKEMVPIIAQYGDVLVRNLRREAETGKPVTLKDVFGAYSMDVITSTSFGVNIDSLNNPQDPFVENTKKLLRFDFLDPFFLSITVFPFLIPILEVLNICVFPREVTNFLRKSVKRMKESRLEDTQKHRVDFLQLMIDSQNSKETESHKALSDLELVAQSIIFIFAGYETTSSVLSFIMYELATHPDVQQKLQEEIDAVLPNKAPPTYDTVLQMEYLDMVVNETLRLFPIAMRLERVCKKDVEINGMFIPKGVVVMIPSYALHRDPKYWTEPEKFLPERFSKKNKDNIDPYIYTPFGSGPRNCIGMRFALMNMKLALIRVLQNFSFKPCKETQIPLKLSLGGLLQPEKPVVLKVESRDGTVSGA

[5] = biological target: Serine/threonine-protein kinase PLK3 (Homo sapiens, UniProt Q9H4B4); test: Inhibition of PLK3 (unknown origin) by FRET-based homogeneous assay
Sequence of Serine/threonine-protein kinase PLK3 (Q9H4B4 whole entry): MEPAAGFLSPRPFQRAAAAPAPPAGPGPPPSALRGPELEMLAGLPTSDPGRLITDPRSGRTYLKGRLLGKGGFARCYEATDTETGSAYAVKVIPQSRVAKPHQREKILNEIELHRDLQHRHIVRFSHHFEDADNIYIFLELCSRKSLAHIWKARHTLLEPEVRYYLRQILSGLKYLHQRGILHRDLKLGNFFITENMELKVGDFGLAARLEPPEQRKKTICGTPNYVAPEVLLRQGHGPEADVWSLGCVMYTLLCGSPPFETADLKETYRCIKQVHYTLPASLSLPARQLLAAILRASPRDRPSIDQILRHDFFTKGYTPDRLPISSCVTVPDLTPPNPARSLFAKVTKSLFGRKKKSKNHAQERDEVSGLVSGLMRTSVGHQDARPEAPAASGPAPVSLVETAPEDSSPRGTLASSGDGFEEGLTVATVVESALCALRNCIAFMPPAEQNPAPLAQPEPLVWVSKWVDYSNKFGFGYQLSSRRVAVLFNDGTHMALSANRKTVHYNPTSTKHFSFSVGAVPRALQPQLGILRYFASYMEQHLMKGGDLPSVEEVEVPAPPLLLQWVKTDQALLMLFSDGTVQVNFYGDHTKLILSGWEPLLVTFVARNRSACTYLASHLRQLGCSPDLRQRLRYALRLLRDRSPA

[6] = test system: MCF7; test: Antiproliferative activity against human MCF7 cells assessed as growth inhibition after 5 days by SRB assay; assay type: functional; conditions: MCF7, 120 h
[7] = Cmax in SCID mouse at 50 mg/kg, ip; assay type: ADME, organism-based; set-up: dose 50 mg/kg, route intraperitoneal; conditions: in vivo
[8] = AUC in SCID mouse at 50 mg/kg, ip; assay type: ADME, organism-based; set-up: dose 50 mg/kg, route intraperitoneal; conditions: plasma
[9] = test system: MDA-MB-231; test: Antiproliferative activity against human MDA-MB-231 cells assessed as growth inhibition after 5 days by SRB assay; assay type: functional; conditions: MDA-MB-231, 120 h
[10] = biological target: T2, Aurora kinase A (Homo sapiens, UniProt O14965); test: Inhibition of aurora A (unknown origin) by FRET-based homogeneous assay
T2 sequence (O14965 whole entry): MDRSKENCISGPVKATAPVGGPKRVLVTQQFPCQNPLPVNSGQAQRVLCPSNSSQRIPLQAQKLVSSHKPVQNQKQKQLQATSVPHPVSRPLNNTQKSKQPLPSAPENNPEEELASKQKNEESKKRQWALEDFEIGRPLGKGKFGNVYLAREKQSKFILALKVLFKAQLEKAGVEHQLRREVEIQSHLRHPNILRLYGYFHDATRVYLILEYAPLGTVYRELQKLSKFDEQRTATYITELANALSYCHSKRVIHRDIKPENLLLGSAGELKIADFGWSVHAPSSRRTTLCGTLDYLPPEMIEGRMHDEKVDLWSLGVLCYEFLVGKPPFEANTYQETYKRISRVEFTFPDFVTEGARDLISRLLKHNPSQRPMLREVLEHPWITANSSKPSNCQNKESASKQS

An IC50 [1] greater than 10000 nM, an IC50 [2] of 1600 nM and an IC50 [3] of 480 nM were found for `COc1ccc2c(c1)/C(=C\c1ccc3c(/C=C/c4ccc(N5CCN(C)CC5)nc4)n[nH]c3c1)C(=O)N2` in this work. For the same compound, the IC50 [4] was 10000 nM, the IC50 [5] was greater than 10000 nM and the GI50 [6] was 10 nM. The Cmax [7] was 92 ng/mL, the AUC [8] was 190 ng·h/mL and the GI50 [9] was less than 10 nM. For the same compound, the IC50 [10] was 370 nM.
